Results published in paper PMC4718952, “A simple nonradioactive method for the determination of the binding affinities of antibodies induced by hapten bioconjugates for drugs of abuse” (Analytical and Bioanalytical Chemistry, 2015).

How the values were obtained:
plasma proteins [1] = test: Binding of D3-tracers to plasma proteins in dilute week 0 (preimmunized) sera by ED; assay type: in vitro ADME, mouse; conditions: ≥1:400 dilution of week 0 (preimmunized) sera
Method: Week 0 and week 9 sera were considered as negative and anti-hapten sera, respectively. Anti-hapten sera solutions were prepared by diluting the sera in DPBS (1:400, 1:800, or 1:600). Dialysis buffer was prepared by diluting the corresponding negative sera in DPBS (1:400, 1:800, or 1:600). Competitive inhibitors with different initial concentrations were prepared in the dialysis buffer. For the test samples, anti-hapten sera/D3-tracer was run against the negative sera/inhibitors at the same sera dilution. […] For negative controls, negative sera/D3-tracer was run against the negative sera at the same sera dilution.

[2] = Stability of heroin and its metabolites in DPBS without sera; assay type: physicochemical
[3] = Stability of heroin and its metabolites in dilute mouse sera; conditions: 24 h
[4] = in humans, Fig. 1a; cited from earlier work
plasma proteins [5] = conditions: neat plasma/sera; cited from earlier work

**Q.** Which “binding to the plasma proteins” value (plasma proteins [1]) does the source give for `[2H]C([2H])([2H])N1CCC23c4c5ccc(O)c4OC2C(OC(C)=O)C=CC3C1C5` (stereo not shown) [D3-6-AM] here?
**A.** The value was about 0%.

**Q.** With `[2H]C([2H])([2H])N1CCC23c4c5ccc(O)c4OC2C(O)C=CC3C1C5` (stereo not shown) [D3-morphine] as the compound, how does the “binding to the plasma proteins” value (plasma proteins [1]) read?
**A.** Its value is about 0%.

**Q.** Which results are given for `CN1CC[C@]23c4c5ccc(O)c4O[C@H]2[C@@H](O)C=C[C@H]3[C@H]1C5` [morphine]?
**A.** degradation in the absence of sera ([2]; DPBS pH 7.4, 4 °C): No degradation; degradation of morphine in dilute sera ([3]; normal mouse sera, ≥1:100 dilutions, 4 °C): not observed

**Q.** With 6-acetylmorphine [6-AM] as the compound, how does the t1/2 [4] read?
**A.** Its t1/2 is 22 to 26 min.

**Q.** And the “degradation in the absence of sera” value ([2]; DPBS pH 7.4, 4 °C)?
**A.** The value was “No degradation”.

**Q.** What about the “hydrolysis of 6-AM in dilute sera” value ([3]; normal mouse sera, ≥1:200 dilutions, 4 °C) of the same compound?
**A.** The value was “not observed”.

**Q.** With `CC(=O)Oc1ccc2c3c1O[C@H]1[C@@H](OC(C)=O)C=C[C@H]4[C@@H](C2)N(C)CC[C@@]341` [heroin] as the compound, how does the t1/2 [4] read?
**A.** The t1/2 was 3 to 4 min.

**Q.** And the plasma binding (plasma proteins [5])?
**A.** Its plasma binding is about 35%.

**Q.** And the partial heroin hydrolysis ([2]; absence of sera, DPBS pH 7.4, 4 °C)?
**A.** Its partial heroin hydrolysis is about 20%.

**Q.** And the “% heroin remained intact” value ([2]; after 24 h in DPBS (− Sera), pH 7.4, 4 °C)?
**A.** The value was 79.9 ± 2.71%.

**Q.** What about the “amount of intact heroin” value ([3]; 1:400 sera dilution with iso-OMPA and BNPP) of the same compound?
**A.** Its value is at least 80%.

**Q.** What about the “hydrolysis of heroin in dilute sera” value ([3]; normal mouse sera, all dilutions (1:25-1:400), 4 °C) of the same compound?
**A.** Its value is “extensive hydrolysis”.
